According to patent US11103432B2, “Use of 1,3 diglyceride in a topical composition for countering the weakening of the skin barrier” (PIERRE FABRE DERMO-COSMETIQUE, priority 2015, dated 2021):
Several values for one entry are separate records, joined by “and”; a condition that tells them apart may be missing. Equal values may be shown once. Read-outs that look alike come from different tables or passages of the source.

Assays:
[1] = ATR-FTIR of lipids extracted from forearm stratum corneum with added diglyceride (vCH2 vibration); assay type: physicochemical; settings: 40° C., 3 μg of diglyceride for 30 μg of sample; for influence on the organisation of the intercorneocytory lipids (vCH2, FIG. 2): versus extract devoid of diglyceride
Excerpt: In order to evaluate the change in the organisation of the lipid phases of the stratum corneum, the inventors used infrared spectroscopy (ATR-FTIR: Attenuated total reflectance—Fourier transform infrared Spectroscopy) to analyse the variation, under the effect of the temperature, of the fundamental vibration bands of the vCH2 aliphatic chains of these lipids. More particularly, the position of the absorption band, corresponding to the stretching of the CH2, is located around wave number 2848 cm^−1. By way of example, an increase in the temperature of the surface of the skin causes a displacement of this bands to the higher wave numbers.
The study was carried out on lipids extracted from the stratum corneum of the forearm in order to have a model as close as possible to reality. We have used infrared spectroscopy (ATR-FTIR), to examine the variation, in function of temperature, of fundamental vCH2 vibration bands of aliphatic chains.
The tests were carried out in similar experimental conditions using lipids extracts from the forearm wherein a standardized quantity of diglyceride is added (3 μg of diglyceride for 30 μg of sample).
The test of the example 2 was reproduced with 1,2-distearoyl-rac-glycerol (1,2 diglyceride) and compared to the test carried out with glyceryl 1,3-distearate (1,3 diglyceride).

Human skin = experiment: Benzo[a]pyrene skin penetration study, Franz diffusion cell; assay type: in vitro ADME; settings: for B(a)P at Surface, percentage of the applied dose (Mean) / B(a)P in Receptor fluid, percentage of the applied dose (Mean) / B(a)P in Skin, percentage of the applied dose (Mean) / B(a)P in Stratum corneum, percentage of the applied dose (Mean): n = 8
Protocol: (§1) In order to evaluate the impact of 1,3-diglycerides on the organization of stratum corneum lipids and barrier function, in vitro, skin penetration studies of a known pollutant (benzo[a]pyrene (B(a)P) has been developed and performed. On the same donors, FTIR (Fourier transform infrared) measurement and B(a)P skin penetration were assessed to link lipid organization and the “outside-in” skin barrier function modulations, when the skin is heated up to 42° C.
(§2) Secondly, the impact of pre-treatment with 3% and 15% of glyceryl 1,3 distearate formulated in dimethicone on the modification of the SC (stratum corneum) lipid organization and B(a)P skin penetration provoked by the temperature elevation has been evaluated.
(§3) • OECD Guidelines for the testing of chemicals: guideline 428, skin absorption: in vitro method (13 Apr. 2004); • SCCS Guidelines, basic criteria for the in-vitro assessment of dermal absorption of cosmetics ingredients, updated March 2006.
(§4) For the skin delivery study, two temperatures were set. The classical temperature at the surface of the skin for skin delivery studies is 32° C. This temperature corresponds to the temperature at the surface of the skin in vivo. […]
(§5) The skin penetration study was carried out on 8 donors, the same donor was used for all the conditions:
(§6) The study was carried out on 8 donors, the same donor was used for all the conditions. B(a)P recovery should be comprised between 85% and 115% of the applied dose, in accordance with OECD 428 and SCCS guidelines.
(§7) • % of the applied dose at surface, stratum corneum, skin and receptor fluid; • μg/cm^2 of B(a)P at surface, stratum corneum, skin and receptor fluid. Results were presented with 2 decimals for the percentages and the quantities in μg/cm^2. Formula used in this report: • Standard error of the mean: • sem=Sd/√n • Bioavailability:
(§8) Sum of the quantities found in the skin and receptor fluid.
(§9) The inter-group comparison was performed by a paired Student's t-test with Graph Pad Prism software. The statistical analysis can be interpreted if n>5.

[2] = as above; assay type: in vitro ADME, human; settings: human, without pre-treatment, 24 h, read-out: bioavailability (skin + receptor fluid) of benzo[a]pyrene, % of the dose applied to the skin
Protocol: as §1, §2, §3, §4, §5, §6, §7, §8, §9

[3] = tested on: intercorneocytory lipids of the skin; experiment: In vivo ATR-FTIR on the inner forearm of healthy volunteers after application of glyceryl 1,3-distearate; design: species or system human; settings: for Δ νCH2, Average / Δ νCH2, single subjects: 40° C., versus control zone
Protocol: This study was carried out on health volunteers. The collection of infrared data was done through the intermediary of the ATR-FTIR sensor on the inner face of the forearm on a zone of 10 cm^2.
A treated zone (with application in vivo of glyceryl 1,3 distearate) and a control zone (without application of glyceryl 1,3 distearate) were determined.
Two concentrations in glyceryl 1,3-distearate were evaluated (table 2: 0.5 mg/cm^2 and table 3: 0.15 mg/cm^2).
At T0: the skin is first heated to between 30 and 45° C.
Then after application in vivo of glyceryl 1,3-distearate on the treated zone, an evaluation is made of the variation in the wave number associated with the vCH2 vibration comparatively to the reference measurement without product applied (control zone) at different times after T0: T 30 minutes, T 1 h30 minutes and T 4 hours.
Tables 2 and 3: express the variation of the wave number associated with the vCH2 vibration of the aliphatic chains of the intercorneocytory lipids at 40° C. in the presence of glyceryl 1,3-distearate comparatively to the reference measurement without glyceryl 1,3-distearate.

[4] = tested on: stratum corneum lipids of human skin explants; experiment: FTIR measurement of human skin explants with or without pre-treatment (position of CH2 symmetric stretching band)
Protocol: The skin samples were heated at the rate of 1° C./min, and spectra were collected between 28° C. and 43° C.
Lipids organization—FTIR measurement: After 30 min of pre-treatment, FTIR measurements were performed to evaluate the molecular organization of the lipid matrix in the stratum corneum. The procedure is based on the study of the position of the CH2 symmetric stretching band, around 2850 cm^−1, depending on the temperature: the skin samples were heated at the rate of 1° C./min and spectra were collected between 28° C. and 43° C. with and without pre-treatment. The position of the CH2 symmetric stretching band is characteristic of the lipid organization and can be related to the barrier function.
FTIR measurement of skin explant (position of CH2 symmetric stretching band) depending on the temperature;
FTIR measurements were performed on human skin explants (8 donors) with or without pre-treatment. The skin samples were heated at the rate of 1° C./min, and spectra were collected between 28° C. and 43° C.

[5] = 3% pre-treatment in dimethicone, 32° C., 24 h
[6] = 3% pre-treatment in dimethicone, 42° C., 24 h
[7] = 15% pre-treatment in dimethicone, 32° C., 24 h
[8] = 15% pre-treatment in dimethicone, 42° C., 24 h
[9] = 0.15 mg/cm^2 (table title), 30 min
[10] = 0.15 mg/cm^2 (table title), 1 h 30
[11] = 0.15 mg/cm^2 (table title), 4 h

## CCCCCCCCCC(=O)OCC(O)COC(=O)CCCCCCCCC [1,3-dicaprin]
[1]
  influence on the organisation of the intercorneocytory lipids (vCH2, FIG. 2): no influence

## c1ccc2c(c1)cc1ccc3cccc4ccc2c1c34 [B(a)P, benzo[a]pyrene, reference compound]
Human skin; human
  B(a)P concentration in the receptor fluid corresponding to the worst case: 12.51 µg/L
  percentage of B(a)P found in the receptor fluid, worst case: 0.13 % of the applied dose
Human skin; human, 24 h
  B(a)P recovered at the surface, % of the applied dose: up to 94.5%
Human skin; without pre-treatment, skin temperature 32° C., 24 h
  bioavailability (skin + receptor fluid) of benzo[a]pyrene, % of the dose applied to the skin: 2.95%
[2]; skin temperature 32° C.
  bioavailability at 24 h: ≤ 2.95%
[2]; skin temperature 42° C.
  bioavailability at 24 h: 6.95%

## CCCCCCCCCCCCCCCCCC(=O)OCC(CO)OC(=O)CCCCCCCCCCCCCCCCC (racemic) [1,2-distearoyl-rac-glycerol]
[1]
  Δ νCH2: variation in the wave number of the νCH2 vibration of the aliphatic chains of the intercorneocytory lipids, with or without diglyceride: -0.65 cm⁻¹

## CCCCCCCCCCCC(=O)OCC(O)COC(=O)CCCCCCCCCCC [1,3-dilauroylglycerol]
[1]
  influence on the organisation of the intercorneocytory lipids (vCH2, FIG. 2): no influence

## CCCCCCCCCCCCCCCCCC(=O)OCC(O)COC(=O)CCCCCCCCCCCCCCCCC [glyceryl 1,3-distearate]
Human skin; [5]
  B(a)P at Surface, percentage of the applied dose (Mean): 94.66%
  B(a)P in Receptor fluid, percentage of the applied dose (Mean): 0.05%
  B(a)P in Skin, percentage of the applied dose (Mean): 2.09%
  B(a)P in Stratum corneum, percentage of the applied dose (Mean): 0.82%
Human skin; [6]
  B(a)P at Surface, percentage of the applied dose (Mean): 90.39%
  B(a)P in Receptor fluid, percentage of the applied dose (Mean): 0.17%
  B(a)P in Skin, percentage of the applied dose (Mean): 5.18%
  B(a)P in Stratum corneum, percentage of the applied dose (Mean): 0.90%
Human skin; [7]
  B(a)P at Surface, percentage of the applied dose (Mean): 94.99%
  B(a)P in Receptor fluid, percentage of the applied dose (Mean): 0.04%
  B(a)P in Skin, percentage of the applied dose (Mean): 1.87%
  B(a)P in Stratum corneum, percentage of the applied dose (Mean): 0.77%
Human skin; [8]
  B(a)P at Surface, percentage of the applied dose (Mean): 92.68%
  B(a)P in Receptor fluid, percentage of the applied dose (Mean): 0.15%
  B(a)P in Skin, percentage of the applied dose (Mean): 4.40%
  B(a)P in Stratum corneum, percentage of the applied dose (Mean): 0.75%
Human skin; dose of 3% or 15%, skin maintained in an atmosphere at 42° C.
  penetration of benzo[a]pyrene compared to the basal state and the vehicle: significant decrease
[1]
  Δ νCH2: variation in the wave number of the νCH2 vibration of the aliphatic chains of the intercorneocytory lipids, with or without diglyceride: -1.43 cm⁻¹
[3]; [9]
  Δ νCH2, Average: -2.02 cm⁻¹
  Δ νCH2, single subjects: -1.87 cm⁻¹ and -2.16 cm⁻¹
[3]; [10]
  Δ νCH2, Average: -2.08 cm⁻¹
  Δ νCH2, single subjects: -1.91 cm⁻¹ and -2.25 cm⁻¹
[3]; [11]
  Δ νCH2, Average: -1.89 cm⁻¹
  Δ νCH2, single subjects: -1.64 cm⁻¹ and -2.15 cm⁻¹
[3]; 0.5 mg/cm^2, 30 min
  Δ νCH2, Average: -2.46 cm⁻¹
  Δ νCH2, single subjects: -2.56 cm⁻¹ and -3.02 cm⁻¹ and -2.71 cm⁻¹
[3]; 0.5 mg/cm^2, 1 h 30
  Δ νCH2, Average: -2.41 cm⁻¹
  Δ νCH2, single subjects: -2.65 cm⁻¹ and -2.62 cm⁻¹ and -2.6 cm⁻¹
[3]; 0.5 mg/cm^2, 4 h
  Δ νCH2, Average: -2.17 cm⁻¹
  Δ νCH2, single subjects: -2.6 cm⁻¹ and -2.29 cm⁻¹ and -2.18 cm⁻¹
[3]; skin heated between 30 and 45° C.
  persistence of the stabilising effect after application: at least 4 hours
[3]; skin heated between 30 and 45° C., normal conditions of use
  organisation of the intercorneocytory spaces of the skin: stabilise the organisation of the intercorneocytory spaces
[4]; 3% in dimethicone as pre-treatment, 30 min, 43° C., basal 2852.12
  position of the CH2 symmetric stretching band: 2848.7 cm⁻¹
[4]; 3% pre-treatment, 28° C. to 43° C., 0.81 without pre-treatment
  shift of the CH2 symmetric stretching band induced by the heating of the skin: 0.05 cm⁻¹
[4]; pre-treatment with 3% or 15%, T tests, p value<0.05
  impact of the heating on the lipid organization: decrease significantly
